How the values were obtained:
CAG myeloma cells [1] = experiment: Cell spreading / attachment assay of CAG myeloma cells on FN or VCAM-1; type: cell-based, human
Protocol: Nitrocellulose-coated slides were coated for 2 hr at 37° C. with 40 μg/ml FN (kindly provided by Dr. Donna Peters, University of Wisconsin-Madison) or 5 μg/ml recombinant VCAM-1/Fc chimera (R&D Systems) in calcium and magnesium-free PBS (CMF-PBS; 135 mM NaCl, 2.7 mM KCl, 10.2 mM Na2HPO4-7H20 and 1.75 mM KH2PO4, pH7.4). Slides were blocked for 1 hr at 37° C. with RPMI 1640 containing 1% heat-denatured BSA (plating medium). Cells in plating medium were allowed to attach and spread for 2.5 hr at 37° C. Slides were fixed in 4% EM grade paraformaldehyde (Electron Microscopy Sciences) in CMF-PBS and labeled for 30 min in 0.13 μM rhodamine phalloidin (Invitrogen) in CMF-PBS. Coverslips were mounted in non-fluorescing mounting medium (Immumount; Thermo Shandon) and allowed to dry. All images were acquired with a Nikon Microphot FX microscope using a 20× objective (Nikon; Ex 541-551, DM 580, Barrier 590), Photometric CoolSnap ES camera, and version 7.7.3.0 Metamorph© Imaging software (Molecular Devices). All images represent results from triplicate wells and at least three independent experiments.

VLA-4 and VEGFR2 = biological target: T1, VLA-4 and VEGFR2 (Homo sapiens, UniProt P05556+P13612+P35968); experiment: Immunostaining for co-localization of GST-S1ED with VLA-4 or VEGFR2; type: cell-based; conditions: HPSE^low cells on FN, 4 μM GST-S1ED, 2.5 hrs
T1 construct: the α4-integrin (VLA-4), which is expressed on myeloma cells; endogenous in cells; host or cells: CAG human myeloma cells (HPSE^low / HPSE^high) plated on fibronectin
T1 sequence (P35968 20-1356): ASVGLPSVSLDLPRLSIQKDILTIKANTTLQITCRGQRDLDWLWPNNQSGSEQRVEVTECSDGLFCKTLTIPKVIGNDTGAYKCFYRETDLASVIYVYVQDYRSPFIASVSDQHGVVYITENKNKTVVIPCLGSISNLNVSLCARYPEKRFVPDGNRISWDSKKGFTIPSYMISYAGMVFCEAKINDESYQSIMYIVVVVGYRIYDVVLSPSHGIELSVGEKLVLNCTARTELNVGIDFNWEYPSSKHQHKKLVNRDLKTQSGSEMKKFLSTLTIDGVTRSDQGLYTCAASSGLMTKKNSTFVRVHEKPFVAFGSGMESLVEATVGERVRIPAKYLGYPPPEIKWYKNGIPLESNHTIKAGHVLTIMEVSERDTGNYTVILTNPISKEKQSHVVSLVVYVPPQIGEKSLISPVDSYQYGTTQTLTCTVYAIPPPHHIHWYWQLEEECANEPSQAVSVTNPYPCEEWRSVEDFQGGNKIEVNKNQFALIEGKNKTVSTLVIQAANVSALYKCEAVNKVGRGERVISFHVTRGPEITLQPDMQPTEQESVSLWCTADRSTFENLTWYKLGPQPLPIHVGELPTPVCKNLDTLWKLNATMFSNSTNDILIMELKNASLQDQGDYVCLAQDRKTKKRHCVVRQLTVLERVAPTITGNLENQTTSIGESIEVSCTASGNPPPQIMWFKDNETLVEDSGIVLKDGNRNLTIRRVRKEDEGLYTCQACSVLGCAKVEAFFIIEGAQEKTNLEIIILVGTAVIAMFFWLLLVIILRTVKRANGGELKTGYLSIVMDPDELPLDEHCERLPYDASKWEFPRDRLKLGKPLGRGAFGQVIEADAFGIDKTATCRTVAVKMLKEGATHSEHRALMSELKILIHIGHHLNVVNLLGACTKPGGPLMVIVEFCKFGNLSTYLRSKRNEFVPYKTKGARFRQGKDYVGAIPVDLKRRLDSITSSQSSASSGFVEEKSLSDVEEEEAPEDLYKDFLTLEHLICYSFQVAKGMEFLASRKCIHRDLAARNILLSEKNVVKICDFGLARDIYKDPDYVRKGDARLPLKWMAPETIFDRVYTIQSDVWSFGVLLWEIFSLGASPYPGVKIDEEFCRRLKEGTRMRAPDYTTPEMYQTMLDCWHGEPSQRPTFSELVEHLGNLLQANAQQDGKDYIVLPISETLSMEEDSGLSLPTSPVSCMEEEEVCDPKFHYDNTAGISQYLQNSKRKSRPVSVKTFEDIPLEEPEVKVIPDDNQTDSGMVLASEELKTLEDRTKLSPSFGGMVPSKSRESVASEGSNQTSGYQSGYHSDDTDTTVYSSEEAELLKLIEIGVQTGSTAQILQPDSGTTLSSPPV
T1 sequence (P13612 34-1032): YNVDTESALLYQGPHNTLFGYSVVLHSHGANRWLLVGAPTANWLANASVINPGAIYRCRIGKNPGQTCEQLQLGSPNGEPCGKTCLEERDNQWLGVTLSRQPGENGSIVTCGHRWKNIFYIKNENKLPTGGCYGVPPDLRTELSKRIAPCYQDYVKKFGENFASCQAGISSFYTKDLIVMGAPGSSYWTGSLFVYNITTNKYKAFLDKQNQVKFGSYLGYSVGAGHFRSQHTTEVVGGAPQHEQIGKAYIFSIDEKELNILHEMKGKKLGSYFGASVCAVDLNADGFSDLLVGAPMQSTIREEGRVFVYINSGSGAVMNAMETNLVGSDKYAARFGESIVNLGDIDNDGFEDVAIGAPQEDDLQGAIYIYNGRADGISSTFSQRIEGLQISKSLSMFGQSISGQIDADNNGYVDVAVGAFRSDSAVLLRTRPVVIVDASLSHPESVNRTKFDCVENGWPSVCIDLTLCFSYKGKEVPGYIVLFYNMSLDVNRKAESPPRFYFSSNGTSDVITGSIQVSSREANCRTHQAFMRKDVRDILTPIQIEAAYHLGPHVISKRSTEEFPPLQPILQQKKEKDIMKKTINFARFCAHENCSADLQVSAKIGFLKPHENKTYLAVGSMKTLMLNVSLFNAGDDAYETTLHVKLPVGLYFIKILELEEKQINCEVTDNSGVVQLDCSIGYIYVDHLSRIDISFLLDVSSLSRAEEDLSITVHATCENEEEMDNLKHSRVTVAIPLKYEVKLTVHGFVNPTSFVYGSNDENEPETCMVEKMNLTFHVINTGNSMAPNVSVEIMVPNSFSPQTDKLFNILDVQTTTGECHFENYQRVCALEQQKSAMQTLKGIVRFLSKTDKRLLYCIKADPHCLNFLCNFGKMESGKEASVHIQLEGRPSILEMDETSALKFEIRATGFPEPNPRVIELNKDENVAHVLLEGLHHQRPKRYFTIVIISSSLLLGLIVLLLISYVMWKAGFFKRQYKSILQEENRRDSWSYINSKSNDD
T1 sequence (P05556 21-798): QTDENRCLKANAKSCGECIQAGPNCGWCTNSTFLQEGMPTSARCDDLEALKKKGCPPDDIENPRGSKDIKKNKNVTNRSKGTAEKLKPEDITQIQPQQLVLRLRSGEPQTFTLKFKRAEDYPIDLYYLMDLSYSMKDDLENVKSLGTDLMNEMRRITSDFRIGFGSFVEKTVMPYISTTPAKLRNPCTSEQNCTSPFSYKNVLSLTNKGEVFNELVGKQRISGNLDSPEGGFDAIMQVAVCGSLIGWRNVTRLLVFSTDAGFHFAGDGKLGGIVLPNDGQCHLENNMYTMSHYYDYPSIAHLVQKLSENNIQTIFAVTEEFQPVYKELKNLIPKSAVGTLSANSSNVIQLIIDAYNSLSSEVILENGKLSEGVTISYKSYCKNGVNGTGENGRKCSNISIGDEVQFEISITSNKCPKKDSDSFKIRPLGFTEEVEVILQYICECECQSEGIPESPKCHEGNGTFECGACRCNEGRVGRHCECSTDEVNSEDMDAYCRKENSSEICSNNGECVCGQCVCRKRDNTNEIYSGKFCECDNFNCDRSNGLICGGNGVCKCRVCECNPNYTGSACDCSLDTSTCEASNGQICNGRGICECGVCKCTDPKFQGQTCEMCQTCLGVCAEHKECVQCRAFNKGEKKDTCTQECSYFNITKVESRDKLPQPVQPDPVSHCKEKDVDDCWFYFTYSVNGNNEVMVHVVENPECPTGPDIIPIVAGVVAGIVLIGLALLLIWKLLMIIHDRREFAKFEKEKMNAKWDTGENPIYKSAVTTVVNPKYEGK
Protocol: (§1) FIGS. 5A-C. Recombinant Sdc1 ectodomain (GST-S1ED) causes capture of VEGFR2 by VLA-4. (FIG. 5A) HPSE^high cells were plated on FN for 2.5 hrs and double stained for VLA-4 and VEGFR2. (FIG. 5B) HPSE^low cells were plated on FN in the presence of 4 μM GST-S1ED. After 2.5 hrs, cells were double-stained for GST to detect the GST-S1ED and VLA-4 or VEGFR2. (FIG. 5C) HPSE^low cells were plated on FN-pre-coated dishes for 2.5 hr in the absence or presence of GST-S1ED and whole cell lysates were prepared for immunoprecipitation with anti-VEGFR2 and VLA-4 antibodies. The associated VLA-4 was detected by immunoblotting with a VLA-4 antibody.
Fixed cells on FN-coated slides were quenched with 0.1 M glycine, permeabilized with CMF-PBS containing 0.1% Triton X-100 for 3 min at room temperature (RT) and blocked with 5% BSA in CMF-PBS. […]

VEGFR2 and VLA-4 [2] = biological target: T2, VEGFR2 and VLA-4 (Homo sapiens, UniProt P05556+P13612+P35968); experiment: Immunoprecipitation of VEGFR2 and detection of associated VLA-4; type: cell-based; conditions: HPSE^low cells on FN, 2.5 hr, in the presence of GST-S1ED
T2 construct: the α4-integrin (VLA-4), which is expressed on myeloma cells; endogenous in cells; host or cells: CAG human myeloma cells (HPSE^low / HPSE^high) plated on fibronectin
T2 sequence (P35968 20-1356): as the sequence (P35968 20-1356) above
T2 sequence (P13612 34-1032): as the sequence (P13612 34-1032) above
T2 sequence (P05556 21-798): as the sequence (P05556 21-798) above
Protocol: as §1
HPSE^low cells were plated on FN in the presence of 4 μg/ml GST or GST-S1ED for 2.5 hr. The cells were washed with CMF-PBS, then lysed for 20 min on ice in lysis buffer (0.5% Triton X-100 in 50 mM Hepes, 50 mM NaCl and 10 mM EDTA (pH 7.4) containing a 1:1000 dilution of protease inhibitor mixture set III (Calbiochem). Cell lysates were precleared at 13000 rpm for 20 min at 4° C. using 50 μg/ml isotype-matched nonspecific IgG and 30 μl of protein G agarose (GE Healthcare), then incubated at 4° C. overnight with either 10 μg/ml anti-α4-integrin (P1H4) or VEGFR2 (mAb 55B11) or nonspecific mouse IgG. Immunoprecipitated α4-integrin or VEGFR2 were dissolved in SDS sample buffer), electrophoresed and analyzed on western blots as described previously. […]

VLA-4 = biological target: T3, VLA-4 (Homo sapiens, UniProt P05556+P13612); experiment: GST pull down assay: capture of VLA-4 by GST-S1ED; type: binding
T3 construct: the α4-integrin (VLA-4), which is expressed on myeloma cells; endogenous in cells; host or cells: CAG human myeloma cells (HPSE^low), whole-cell lysate
T3 sequence (P13612 34-1032): as the sequence (P13612 34-1032) above
T3 sequence (P05556 21-798): as the sequence (P05556 21-798) above
Protocol: (§2) FIGS. 6A-G. Peptides derived from the active site in Sdc1 activate or inhibit adhesion and invasion. (FIG. 6A) Transwell migration assays towards FN (for 16 hrs) were performed for HPSE low or high cells in the presence of 0, 0.3, 3, and 30 μM of S1ED^210-240. Cells migrating to the bottom side of the filter were counted from five random images for each treatment. (FIG. 6B) The sequence of S1ED210-240 is shown (SEQ ID NO: 3), as well as […] truncation mutants of the peptide (SEQ ID NOs: 5, 2, 4 and 7). Amino acids shown in red appear necessary for the spreading and invasive activity. (FIG. 6C) Images of HPSE^low and HPSE^high cells plated on FN for 2 hr. (FIG. 6D) HPSE^low cells were treated with 0, 0.3, 3, 10 and 30 μM of S1ED^210-236, S1ED^210-233, or S1ED^214-240, plated on FN for 2 hr, fixed and stained with fluorescent phalloidin. Cells from five random images were quantified for cell attachment and cell spreading. (FIG. 6E) HPSE^high cells were treated with 0, 3, 10, and 30 μM of S1ED^210-236, S1ED^210-233, and S1ED^214-240, plated on FN for 2 hr, then fixed, imaged and quantified as in FIG. 6D. (FIG. 6F) Transwell migration assays towards FN (for 16 hr) were performed for HPSE^low or HPSE^high cells in the presence of 30 μM of S1ED^210-236, S1ED^210-233, S1ED^214-240 and Vandetanib. (FIG. 6G) HPSE^low cell lysates were incubated overnight with glutathione beads coated with GST or GST-S1ED in the absence or presence of 30 μM of S1ED^210-236, S1ED^210-233, and S1ED^214-240. Capture of VLA-4 or VEGFR2 was detected by immunoblotting. Sequences in FIG. 6B are 210-240 (SEQ ID NO: 3), 210-236 (SEQ ID NO: 2), 210-233 (SEQ ID NO: 4), 214-240 (SEQ ID NO: 5) and 214-236 (SEQ ID NO: 7).
(§3) CAG cells were washed with CMF-PBS and then lysed for 20 min on ice in lysis buffer. Cell debris was removed by centrifugation at 13000 rpm for 20 min at 4° C. Whole cell lysates were then incubated at 4° C. overnight with either 3 μM GST or 3 μM GST-S1ED in the absence or presence of 1 μM, 3 μM, and 10 μM S1ED^210-240 peptide. GST or GST-S1ED was captured by addition of glutathione Sepharose and the beads were washed with ice-cold lysis buffer and CMF-PBS, prior to addition of SDS-PAGE sample buffer and analyszed by electrophoresis and western blotting as described previously.

VEGFR2 = biological target: T4, VEGFR2 (Homo sapiens, UniProt P35968); experiment: GST pull down assay: capture of VEGFR2 by GST-S1ED; type: binding
T4 construct: endogenous in cells; host or cells: CAG human myeloma cells (HPSE^low = empty vector; HPSE^high = human HPSE cDNA)
T4 sequence (P35968 20-1356): as the sequence (P35968 20-1356) above
Protocol: as §2, §3

VEGFR2 and VLA-4 [3] = biological target: T2, VEGFR2 and VLA-4; experiment: Activation / inhibition of Sdc1-mediated coupling of VEGFR2 to VLA-4 (FIGS. 6A-H); type: cell-based
Protocol: as §2
It is envisioned that a peptide that contains binding sites for both VEGFR2 and VLA-4, such as 210-236, has the capacity to bridge both receptors and link them together. This activates signaling that the cells use for migration and invasion. […]

CAG myeloma cells [4] = experiment: Transwell migration assay of CAG myeloma cells towards FN; type: cell-based, human; conditions: 16 hrs
Protocol: The bottom chambers of Transwell filter chambers (8 μm pores; Corning) were coated with 40 μg/ml of FN. Cells (5×10^5 in 0.2 ml plating medium) were placed in the upper chamber and incubated for 16 hr at 37° C. in the CO2 incubator. After incubation, cells in the upper chamber were removed and cells on the bottom side of the filter were fixed in 4% paraformaldehyde (PFA) and stained with 0.1% Crystal Violet before imaging. Cells from at least five random fields were counted.

[5] = system: human SKBr3 mammary carcinoma cells; experiment: Breast cancer xenograft treated with systemic peptide; type: in vivo; conditions: SKBr3 xenografts in nude mice; 1.09 mg/kg/day by Alzet pump for 3 weeks
Protocol: FIG. 9. Treatment of breast cancer xenograft with systemic S1ED^210-240. 4×10^6 human SKBr3 mammary carcinoma cells were injected in a 1:1 mix with matrigel into the posterior flanks of immunodeficient nude (nu/nu) mice and allowed to establish for one week as palpable tumors. Alzet pumps were then implanted subcutaneously on the anterior dorsal backs of the animals, systemically delivering either phosphate buffered-saline alone (PBS) or S1ED 210-240 peptide in PBS for 3 weeks of treatment. Peptide was delivered at 1.09 mg/kg/day, a concentration estimated to achieve concentrations sufficient to block the VLA-4/VEGFR2 mechanism. Tumor sizes were measured with calipers and converted to tumor volumes using the equation […]. The data are shown as the mean of 12 tumors+/−S.E.M.

Substance	rescue of HPSE^high polarized phenotype blocked by MMP9 blocking antibody (CAG myeloma cells [1]; on FN, GST-S1ED added)	induction of HPSE^low cell spreading by GST-S1ED constructs (CAG myeloma cells [1]; on VCAM-1, 4 μM GST-S1ED constructs)	co-localization with VEGFR2 or VLA-4 (VLA-4 and VEGFR2)	co-immunoprecipitation of VLA-4 with VEGFR2 (VEGFR2 and VLA-4 [2])	capture of VLA-4 by GST-S1ED (VLA-4; CAG myeloma cell lysates)	capture of VLA-4 by GST-S1ED (VLA-4; HMEC-1 cell lysate)	capture of VEGFR2 by GST-S1ED (VEGFR2; CAG myeloma cell lysates)	capture of VEGFR2 by GST-S1ED (VEGFR2; HMEC-1 cell lysate)	concentration at which the peptide inhibits the mechanism (VEGFR2 and VLA-4 [3])	induction of HPSE^low cell spreading by S1ED peptides (CAG myeloma cells [1]; on VCAM-1, 0.3 μM peptide)	FN-induced migration of HPSE^high cells (CAG myeloma cells [4]; 30 μM peptide)	migration of HPSE^low cells (CAG myeloma cells [4]; 30 μM peptide)	migration of HPSE^low cells (CAG myeloma cells [4]; low concentrations, 0.3-3 μM peptide)	size of the tumors [5]
GST-S1ED: recombinant GST-tagged Sdc1 ectodomain expressed in bacteria and devoid of HS	polarized phenotype is rescued	induced cell spreading	co-localized with VEGFR2 or VLA-4 at the protrusive lamellipodium	VLA-4 is co-immunoprecipitated with VEGFR2	captures both VLA-4 and VEGFR2	captures VLA-4 and VEGFR2 from HMEC-1 cells lysates	captures both VLA-4 and VEGFR2	captures VLA-4 and VEGFR2 from HMEC-1 cells lysates						
S1ED^210-240: peptide corresponding to amino acids 210-240 of syndecan-1 ectodomain (SEQ ID NO: 3) (DFTFETSGENTAVVAVEPDRRNQSPVDQGAT)									30 µM	sufficient to induce HPSE^low cell spreading on VCAM-1	decreased	failed to induce	induced migration of HPSE^low cells at low concentrations	effectively reduced the size of the tumors
